Measurements: patent US20080260682A1, “Polyethylene glycol colonic purgative composition” (Salix Pharmaceuticals, Inc., priority 2005, published 2008)

Tested on: normal healthy subjects
Details: in vivo
Experimental: In addition, the safety and tolerability of the PEG 8000 was evaluated.
This study was a double-blinded, randomized, crossover study with 16 healthy male subjects. Subjects were randomly assigned to one of two dosing sequences: Sequence A (n=9) or Sequence B (n=6). For each dosing sequence there were three scheduled visits: a screening visit (Visit 0) and two treatment visits (Visits 1 and 2). […] At the beginning of day 4, the standardized diet ended and subjects were given a low fiber breakfast followed by clear liquids for the rest of the day. On day 5, patients received nothing by mouth (NPO) after the administration of the test materials.
A baseline period measurement period began at 6 p.m. on day 2 and lasted 48 hours. During the baseline period, all bowel movements were collected, recorded, and assessed for consistency and weight. At 6 p.m. on day 4, the test article administration began. […] In both dosing sequences, Visit I was followed by a two-week washout period before subjects crossed over to begin visit 2. During the observation period of test article administration, all bowel movements were collected, recorded, and assessed for consistency and weight. The observation period of test article administration began when the test article was administered and continued until 11 a.m. on day 5.
Subjects drank another 5 doses in the same manner beginning at 6:00 a.m. on day 5.

## polyethylene glycol 8000 [PEG 8000]
  serious events, severe events, deaths: no serious events, no severe events, and no deaths
